One molecule from patent US11573241B2, “Total cellular iron as a marker of cancer stem cells and uses thereof” (Institut National de la Sante et de la Recherche Medicale …, priority 2016, dated 2023) can be followed below.

Structures are written as SMILES.

The assay has as its system HMLER CD24^low cells. The experiment in a line: Fluorescence microscopy of ferritin subcellular localization. The format is cell-based, human. The settings on record: 6 h.

As for `C#CCN[C@@H]1C=C[C@]2(O[C@H]([C@@H](CC)C(=O)[C@@H](C)[C@@H](O)[C@H](C)C3O[C@@H](C(CC)C(=O)O)CC[C@@H]3C)[C@@H](C)C[C@H]2C)O[C@@]12CC[C@@](C)([C@H]1CC[C@](O)(CC)[C@H](C)O1)O2` (stereo partly shown) [AM5, Sal-Propargylamine], the “subcellular localization of ferritin” value is “re-localization of ferritin to the lysosomal compartment”.
